# Test results taken from publication PMC5126668 (PeerJ, 2016).
# Where “and” joins values, the source holds several entries; their conditions need not be identical. Equal entries are not always repeated.
# What was measured:
# rat liver = assay: Hepatic functional markers (ALT, AST) in rats after a single oral dose; assay type: in vivo, Sprague–Dawley rats; conditions: 24 h after single oral dose, mg/kg: AA I 70, BAK 200, ABT 100, GA 100, combinations 200+100
# Experimental: (§1) The blood samples were taken 24 h after the administration of a single oral dose in each group. The samples were promptly centrifuged, and the biochemical parameters, including the levels of ALT, AST, BUN, Cr, and NAG, were then measured. The level of Kim-1 was measured in collected urine samples according to the kit instructions.
# rat kidney [1] = assay: Renal functional markers (BUN, Cr, NAG) in rats after a single oral dose; conditions: for BUN / Cr / NAG: rats, single oral dose
# Experimental: ABT, a broad-spectrum nonspecific CYP inhibitor, was selected as a positive control inhibitor of CYP enzymes. Aristolochic acid A (AA I) was selected as the nephrotoxicity positive control in the study.
# The samples were promptly centrifuged, and the biochemical parameters, including the levels of ALT, AST, BUN, Cr, and NAG, were then measured. The level of Kim-1 was measured in collected urine samples according to the kit instructions.
# rat kidney [2] = assay: Kim-1 in rat urine after a single oral dose (ELISA); assay type: in vivo, Sprague–Dawley rats; conditions: for KIM-1: single oral dose
# Experimental: as §1
# [3] = rat, 24 h after single oral dose, vs vehicle control
# [4] = individual animals (Fig. 3 data)
smiles,measurement,setting,value
"COc1cccc2c1cc([N+](=O)[O-])c1c(C(=O)O)cc3c(c12)OCO3 [AA I, Aristolochic acid A]",ALT (IU/L),rat liver,41.91±3.40 IU/L
same,AST (IU/L),rat liver,29.08±8.01 IU/L
same,BUN level (in words),rat kidney [1]; [3],significantly increased
same,Cr level (in words),rat kidney [1]; [3],significantly increased
same,NAG level (in words),rat kidney [1]; [3],significantly increased
same,BUN,rat kidney [1]; group Mean (Fig. 3 data),6.405 mmol/L
same,Cr,rat kidney [1]; group Mean (Fig. 3 data),367.877 µmol/L
same,NAG,rat kidney [1]; group Mean (Fig. 3 data),42.409 IU/L
same,BUN,rat kidney [1]; [4],5.797 mmol/L and 6.023 mmol/L and 6.135 mmol/L and 7.373 mmol/L and 6.698 mmol/L
same,Cr,rat kidney [1]; [4],298.782 µmol/L and 308.970 µmol/L and 369.706 µmol/L and 567.416 µmol/L and 294.508 µmol/L
same,NAG,rat kidney [1]; [4],23.912 IU/L and 43.077 IU/L and 48.176 IU/L and 27.429 IU/L and 69.451 IU/L
same,Kim-1 level (in words),"rat kidney [2]; after single oral dose, vs vehicle control",significantly increased
same,KIM-1,rat kidney [2]; group Mean (Fig. 3 data),1538.00 pg/mL
same,KIM-1,rat kidney [2]; [4],804.00 pg/mL and 2994.00 pg/mL and 624.00 pg/mL and 2464.00 pg/mL
